Activity calls are given as the source filed them. How the calls were made is not given here.
These compounds were tested against Ubiquitin carboxyl-terminal hydrolase isozyme L1 (Homo sapiens) (UniProt P09936) (assay: biochemical concentration-response of UCH-L1 DUB inhibitors, hit verification (AID 1645867)). Conditions: recombinant UCHL1 deubiquitinase activity assay.
Sequence of Ubiquitin carboxyl-terminal hydrolase isozyme L1 (Homo sapiens) (P09936 whole entry, looked up): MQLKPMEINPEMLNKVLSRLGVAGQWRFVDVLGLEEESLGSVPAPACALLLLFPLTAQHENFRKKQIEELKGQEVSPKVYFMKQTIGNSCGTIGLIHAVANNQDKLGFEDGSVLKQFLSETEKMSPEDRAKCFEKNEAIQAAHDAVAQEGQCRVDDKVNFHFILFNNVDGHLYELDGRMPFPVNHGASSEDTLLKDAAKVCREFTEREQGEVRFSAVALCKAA
`O=C(NC1CC2(CCOCC2)Oc2ccccc21)c1cnccn1` (centres undefined) was tested, and the IC50 was > 25 µM (inactive).
In the case of `Cc1sc(N)nc1-c1ccc(C(C)(C)C)cc1`, the IC50 is reported as > 25 µM (inactive).
With `Fc1ccc(NCc2nc3ccccc3n2Cc2ccccc2)cc1` the IC50 was > 25 µM (inactive).
In the case of `Cc1nc(S(=O)(=O)NC[C@@]23CCC[C@H]2N(C)C(=O)CC3)cn1C`, the IC50 is reported as > 25 µM (inactive).
In the case of `NC(=O)C1(N2CCCCC2)CCN(CC(=O)Nc2cc(Cl)ccc2Cl)CC1`, the IC50 is reported as > 25 µM (inactive).
`CCOc1ccc(-n2ccnc(SCC(=O)Nc3ccccc3Cl)c2=O)cc1` was tested, and the IC50 was > 25 µM (inactive).
With `CSc1ncccc1C(=O)NC1(O)C(=O)c2ccccc2C1=O` the IC50 was 18.3 µM.
`Cc1cc(OCC(=O)Nc2ccc3c(c2)NC(=O)CO3)ccc1Cl` was tested, and the IC50 was > 25 µM (inactive).
In the case of `CCOc1cccc(-c2noc(-c3nn(-c4ccccc4)ccc3=O)n2)c1`, the IC50 is reported as > 25 µM (inactive).
For `O=C(CSc1cn(Cc2ccccc2Cl)c2ccccc12)N1CCOCC1`, the IC50 was > 25 µM (inactive).
In the case of `CC(OC(=O)c1cccc(N(C)C)c1)C(=O)Nc1ncc(Cl)cc1Cl` (centres undefined), the IC50 is reported as > 25 µM (inactive).
For `CC(C)CC[C@H]1O[C@@H](CC(=O)O)Cc2cc3c(c(O)c21)C(=O)c1sc(=O)n(C)c1C3=O`, the IC50 was > 25 µM (inactive).
For `Cc1ccc(-n2ccn3c(CCC(=O)NCc4ccc(F)cc4)nnc3c2=O)cc1C`, the IC50 was > 25 µM (inactive).
For `CN(C)CCN1C(=O)c2cc3occc3n2CC1(C)C(=O)NC1CCCCCC1` (centres undefined), the IC50 was > 25 µM (inactive).
`CCOc1ccc2c(c1)c(=O)c(C(=O)c1ccccc1)cn2CC(=O)Nc1ccc(Cl)cc1` was tested, and the IC50 was > 25 µM (inactive).
With `CNc1nc2c(c(=O)n1C)CN(C(=O)Nc1cccc3ccccc13)CC2` the IC50 was > 25 µM (inactive).
`Cn1cc(NC(=O)Nc2cccc(C(F)(F)F)c2)c2ccccc2c1=O` was tested, and the IC50 was > 25 µM (inactive).
For `COc1cn(CC(=O)Nc2ccc(Cl)cc2)c(CSc2ccccc2)cc1=O`, the IC50 was > 25 µM (inactive).
`CCOc1ccc(-c2ccc3nnc(SCC(=O)Nc4ccc(F)cc4)n3n2)cc1` was tested, and the IC50 was > 25 µM (inactive).
`CCC(Sc1cccc(NC(=O)C2CCCCC2)c1)C(=O)Nc1cc([N+](=O)[O-])ccc1C` (centres undefined) was tested, and the IC50 was > 25 µM (inactive).
In the case of `Fc1cc(F)c2[nH]cc(-c3nnnn3-c3ccc4ccccc4c3)c2c1`, the IC50 is reported as > 25 µM (inactive).
In the case of `COc1cc(NC(=O)Cn2cc(C(=O)c3ccccc3)c(=O)c3cc(Cl)ccc32)cc(OC)c1`, the IC50 is reported as > 25 µM (inactive).
In the case of `Cc1cc(C)cc(NC(=O)C2C3C=CC4(O3)C2C(=O)N(C2CCCCC2)C4C(=O)NC2CCCCC2)c1` (centres undefined), the IC50 is reported as > 25 µM (inactive).
In the case of `Cc1ccc(N(CC(=O)N2CCCc3ccccc32)S(=O)(=O)c2ccc3c(c2)OCCO3)cc1`, the IC50 is reported as > 25 µM (inactive).
`Oc1cccc2c(-c3ccc(O)c4c(O)cccc34)ccc(O)c12` was tested, and the IC50 was 10.7 µM.
In the case of `CCc1ccccc1NC(=O)Cn1c(SCc2ccc(F)cc2)nc2cccnc21`, the IC50 is reported as > 25 µM (inactive).
`Cc1cccc(NC(=O)Cn2cnc(-c3noc(-c4ccccc4)n3)c2)c1C` was tested, and the IC50 was > 25 µM (inactive).
In the case of `COc1cc(O)cc2c1C(=O)OC(C)CCCCCCC2` (centres undefined), the IC50 is reported as > 25 µM (inactive).
`O=C(Nc1cccc(Br)c1)c1cc(-c2cccnc2)n[nH]1` was tested, and the IC50 was > 25 µM (inactive).
With `COc1ccc(NC(=O)Cn2c(C)cc(=O)n3nc(-c4cccc(C)c4)nc23)cc1` the IC50 was > 25 µM (inactive).
With `Cc1ccc(C)c(Cn2cnc3c(nnn3-c3cccc(F)c3)c2=O)c1` the IC50 was > 25 µM (inactive).
`Cc1ccccc1CCNCc1c(C(=O)O)n(Cc2ccc(Cl)cc2)c2ccccc12` was tested, and the IC50 was > 25 µM (inactive).
For `CCc1ccc(-n2c(C)cc(/C=C3\C(=N)N4N=CSC4=NC3=O)c2C)cc1`, the IC50 was > 25 µM (inactive).
With `Cc1ccc(NC(=O)C2C3C=CC4(O3)C2C(=O)N(C2CCCCC2)C4C(=O)NC2CCCCC2)cc1C` (centres undefined) the IC50 was > 25 µM (inactive).
With `O=S1(=O)CCN(CC2CCCO2)c2c(Oc3ccccc3)nc(F)c(Cl)c21` (centres undefined) the IC50 was > 25 µM (inactive).
In the case of `Cc1ccc(C2CC(=O)c3cnc(NCC4CCCO4)nc3C2)cc1` (centres undefined), the IC50 is reported as > 25 µM (inactive).
In the case of `Cc1ccc(CNC(=O)Cn2c(=O)n(CCCC(=O)NCc3ccc(F)cc3)c(=O)c3ccccc32)cc1`, the IC50 is reported as > 25 µM (inactive).
For `O=C(CCCCn1c(=O)[nH]c2ccccc2c1=O)Nc1cccc(Cl)c1`, the IC50 was > 25 µM (inactive).
`CCC(C)Nc1ncnc2c1CN(C1CCCNCC1)C(=O)CN2C` (centres undefined) was tested, and the IC50 was > 25 µM (inactive).
With `Cc1nc(C(=O)NC2(O)C(=O)c3ccccc3C2=O)cs1` the IC50 was 20.7 µM.
For `COc1ccc(-c2cnn(-c3ccc(NC(=O)Nc4cccc(C(F)(F)F)c4)cc3)c2)cc1`, the IC50 was > 25 µM (inactive).
In the case of `N#Cc1cccc(C(=O)Nc2cccc(Oc3ccccc3)c2)c1`, the IC50 is reported as > 25 µM (inactive).
For `COc1cc(OC)c(NC(=O)c2cc(-c3ccccn3)n[nH]2)cc1Cl`, the IC50 was > 25 µM (inactive).
For `CC1=C(C)C(c2c(-c3ccc(C)cc3)[nH]c3ccccc23)N(C(C)(C)C)C1=O` (centres undefined), the IC50 was > 25 µM (inactive).
